The values below come from patent US20090111778A1, “2-Keto-Oxazoles as Modulators of Fatty Acid Amide Hydrolase” (priority 2005, published 2009).

Where a name gives a salt, the structure may show the parent alone.

The target in one experiment is T1, human FAAH (Homo sapiens, UniProt O00519).
T1 construct: expressed in transfected cells
T1 sequence (O00519 1-579): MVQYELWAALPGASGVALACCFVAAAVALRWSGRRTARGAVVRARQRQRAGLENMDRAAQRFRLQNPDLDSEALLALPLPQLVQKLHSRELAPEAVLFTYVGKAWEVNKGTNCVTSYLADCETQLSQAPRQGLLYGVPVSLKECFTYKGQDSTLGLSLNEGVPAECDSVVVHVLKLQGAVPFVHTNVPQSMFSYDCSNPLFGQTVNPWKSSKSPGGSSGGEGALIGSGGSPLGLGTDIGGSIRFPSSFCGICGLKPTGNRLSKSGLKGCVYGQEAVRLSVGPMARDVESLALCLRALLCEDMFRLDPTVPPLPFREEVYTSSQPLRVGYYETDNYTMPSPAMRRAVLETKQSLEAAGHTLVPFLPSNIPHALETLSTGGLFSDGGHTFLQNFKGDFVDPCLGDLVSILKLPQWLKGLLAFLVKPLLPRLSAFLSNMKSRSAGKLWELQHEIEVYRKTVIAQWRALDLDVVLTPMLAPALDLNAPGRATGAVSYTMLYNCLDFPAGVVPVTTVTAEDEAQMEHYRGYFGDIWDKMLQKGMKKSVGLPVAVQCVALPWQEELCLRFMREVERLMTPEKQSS
Put plainly: Assay Method 1: FAAH assay, hydrolysis of 3H-anandamide by homogenate of SK-N-MC cells transfected with human FAAH. Format: biochemical. The conditions noted are these: human FAAH; T84 or transfected SK-N-MC cell homogenate; 3H-AEA tracer 80 nM; rt 1 h; pH 9; read-out: Assay 1 IC50. In a few lines: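 Homogenate of SK-N-MC cells stably expressing human FAAH (G418-selected clones) incubated with compound and 80 nM [1-3H-ethanolamine]anandamide for 1 h at rt. Released 3H-ethanolamine separated from substrate by activated-charcoal filtration, then counted by scintillation.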

A further experiment has as its target T2, rat FAAH (Rattus norvegicus, UniProt P97612).
T2 construct: expressed in transfected cells
T2 sequence (P97612 1-579): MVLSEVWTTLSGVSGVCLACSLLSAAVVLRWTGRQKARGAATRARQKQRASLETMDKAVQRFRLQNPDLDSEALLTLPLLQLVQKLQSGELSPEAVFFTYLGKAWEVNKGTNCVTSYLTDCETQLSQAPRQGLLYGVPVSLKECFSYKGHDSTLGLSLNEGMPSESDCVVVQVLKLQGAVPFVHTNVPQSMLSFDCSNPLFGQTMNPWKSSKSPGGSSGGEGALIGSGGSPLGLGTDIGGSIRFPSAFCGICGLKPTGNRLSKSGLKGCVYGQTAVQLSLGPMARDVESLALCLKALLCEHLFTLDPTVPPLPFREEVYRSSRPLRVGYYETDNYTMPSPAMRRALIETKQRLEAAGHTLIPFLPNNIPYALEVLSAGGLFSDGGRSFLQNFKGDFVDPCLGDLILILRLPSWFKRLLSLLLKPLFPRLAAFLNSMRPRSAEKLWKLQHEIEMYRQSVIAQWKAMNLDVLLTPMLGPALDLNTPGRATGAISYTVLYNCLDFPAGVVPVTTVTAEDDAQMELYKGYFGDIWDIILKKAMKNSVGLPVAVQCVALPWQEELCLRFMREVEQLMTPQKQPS
In words: Assay Method 2: FAAH assay, hydrolysis of 3H-anandamide by homogenate of SK-N-MC cells transfected with rat FAAH. The conditions noted are these: T84 or transfected SK-N-MC cell homogenate, 3H-AEA tracer 80 nM, rt 1 h, pH 9. Format: biochemical. The procedure, abridged:
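Rat FAAH activity from homogenate of G418-selected, electroporated SK-N-MC clones was measured as release of radiolabelled ethanolamine from 3H-anandamide. After 1 h at rt, charcoal filtration retained substrate, and scintillation counting of the flow-through gave the read-out.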

In general, IC50 refers to the concentration that gives 50% inhibition. For `COc1ccc2nc(Cl)c(CN3CCC(CCCC(=O)c4ncco4)CC3)cc2c1` [Example 100, 4-[1-(2-Chloro-6-methoxy-quinolin-3-ylmethyl)-piperidin-4-yl]-1-oxazol-2-yl-butan-1-one], the figures for the IC50 at human FAAH and on rat FAAH were 30 nM and 11 nM, respectively.

As for `O=C(CCCC1CCN(S(=O)(=O)c2ccc(Cl)cc2)CC1)c1ncco1` [Example 60, 4-[1-(4-Chloro-benzenesulfonyl)-piperidin-4-yl]-1-oxazol-2-yl-butan-1-one], the IC50 amounted to 4 nM on human FAAH and 34 nM against rat FAAH.

In the case of `CC(C)c1cccc(CN2CCC(CCCC(=O)c3ncco3)CC2)c1` [Example 140, 4-[1-(3-Isopropyl-benzyl)-piperidin-4-yl]-1-oxazol-2-yl-butan-1-one], the results for the 50% inhibitory concentration (IC50) on human FAAH and against rat FAAH were 1 nM and 3 nM, respectively.

As for `O=C(CCCC1CCN(Cc2ccc(Br)c(Br)c2)CC1)c1ncco1` [Example 11, 4-[1-(3,4-Dibromo-benzyl)-piperidin-4-yl]-1-oxazol-2-yl-butan-1-one], the concentration for half-maximal inhibition (IC50) on human FAAH came to 36 nM; against rat FAAH it was 95 nM.

For `O=C(CCCC1CCN(C(=O)CCc2ccc(Cl)cc2)CC1)c1ncco1` [Example 46, 4-{1-[3-(4-Chloro-phenyl)-propionyl]-piperidin-4-yl}-1-oxazol-2-yl-butan-1-one], the IC50 at human FAAH came out at 12 nM; at rat FAAH it was 3 nM.

`Cc1ccc(S(=O)(=O)N2CCC(CCCC(=O)c3ncc(C(=O)O)o3)CC2)cc1` [Example 146]: the results for the IC50 on human FAAH and at rat FAAH were 26 nM and 14 nM, respectively.

As for `CC(C)CCC(=O)N1CCC(CCCC(=O)c2ncco2)CC1` [Example 51, 4-Methyl-1-[4-(4-oxazol-2-yl-4-oxo-butyl)-piperidin-1-yl]-pentan-1-one], the figures for the IC50 at human FAAH and on rat FAAH were 230 nM and 635 nM, respectively.

With `O=C(CCCC1CCN(Cc2ccc(Cl)c(Cl)c2)CC1)c1ncco1` [Example 12, 4-[1-(3,4-Dichloro-benzyl)-piperidin-4-yl]-1-oxazol-2-yl-butan-1-one], the IC50 worked out at 50 nM at human FAAH and 70 nM against rat FAAH.

Consider `O=C(CCCC1CCN(Cc2ccccc2)CC1)c1ncc(-c2ccco2)o1` [Example 121, 4-(1-Benzyl-piperidin-4-yl)-1-(5-furan-2-yl-oxazol-2-yl)-butan-1-one], for which the results for the IC50 at human FAAH and against rat FAAH were 258 nM and 323 nM, respectively.

With `O=C(CCCC1CCN(Cc2ccc(Br)nc2)CC1)c1ncco1` [Example 76, 4-[1-(6-Bromo-pyridin-3-ylmethyl)-piperidin-4-yl]-1-oxazol-2-yl-butan-1-one], the 50% inhibitory concentration (IC50) at human FAAH worked out at 400 nM; at rat FAAH, 650 nM.

On to `O=C(CCCC1CCN(Cc2ccc(N3CCCC3)cc2)CC1)c1ncco1` [Example 102, 1-oxazol-2-yl-4-[1-(4-pyrrolidin-1-yl-benzyl)-piperidin-4-yl]-butan-1-one], for which the figures for the IC50 at human FAAH and on rat FAAH were 530 nM and 3000 nM, respectively.

`O=C(CCCC1CCN(Cc2ccc(F)c(Cl)c2)CC1)c1ncco1` [Example 13, 4-[1-(3-Chloro-4-fluoro-benzyl)-piperidin-4-yl]-1-oxazol-2-yl-butan-1-one]: the IC50 on human FAAH came to 50 nM; against rat FAAH it was 180 nM.

Consider `CC(C)(C)c1ccc(CN2CCC(CCCC(=O)c3ncco3)CC2)cn1` [Example 139, 4-[1-(6-tert-Butyl-pyridin-3-ylmethyl)-piperidin-4-yl]-1-oxazol-2-yl-butan-1-one], for which the IC50 on human FAAH is 50 nM; on rat FAAH, 550 nM.

Regarding `O=C(CCCC1CCN(S(=O)(=O)c2ccccc2)CC1)c1ncco1` [Example 59, 4-(1-Benzenesulfonyl-piperidin-4-yl)-1-oxazol-2-yl-butan-1-one], the IC50 at human FAAH came out at 705 nM; on rat FAAH, 165 nM.

With `CC(c1ccccc1)N1CCC(CCCC(=O)c2ncco2)CC1` (stereo not drawn) [Example 142, 1-Oxazol-2-yl-4-[1-(1-phenyl-ethyl)-piperidin-4-yl]-butan-1-one], the IC50 is 190 nM on human FAAH and 3000 nM against rat FAAH.

Consider `Cc1ccc2nc(Cl)c(CN3CCC(CCCC(=O)c4ncco4)CC3)cc2c1` [Example 98, 4-[1-(2-Chloro-6-methyl-quinolin-3-ylmethyl)-piperidin-4-yl]-1-oxazol-2-yl-butan-1-one], for which the IC50 was found to be 0.4 nM at human FAAH and 7 nM against rat FAAH.

Consider `O=C(CCCC1CCN(Cc2cccc(F)c2)CC1)c1ncco1` [Example 8, 4-[1-(3-Fluoro-benzyl)-piperidin-4-yl]-1-oxazol-2-yl-butan-1-one], for which the IC50 on human FAAH worked out at 100 nM; against rat FAAH it was 350 nM.

For the compound `Cc1cccc2cc(CN3CCC(CCCC(=O)c4ncco4)CC3)c(Cl)nc12` [Example 99, 4-[1-(2-Chloro-8-methyl-quinolin-3-ylmethyl)-piperidin-4-yl]-1-oxazol-2-yl-butan-1-one], the figures for the IC50 on human FAAH and at rat FAAH were 5 nM and 8 nM, respectively.

`CCN(CC)c1ccc(CN2CCC(CCCC(=O)c3ncco3)CC2)cc1` [Example 89, 4-[1-(4-Diethylamino-benzyl)-piperidin-4-yl]-1-oxazol-2-yl-butan-1-one]: the results for the IC50 on human FAAH and against rat FAAH were 130 nM and 700 nM, respectively.

Turning to `COc1cccc(-c2ccc(CN3CCC(CCCC(=O)c4ncco4)CC3)cn2)c1` [Example 104, 4-{1-[6-(3-Methoxy-phenyl)-pyridin-3-ylmethyl]-piperidin-4-yl}-1-oxazol-2-yl-butan-1-one], the IC50 stood at 4 nM on human FAAH and 48 nM at rat FAAH.

As for `CC(C)(C)COC(=O)N1CCC(CCCC(=O)c2ncco2)CC1` [Example 67, 4-(4-Oxazol-2-yl-4-oxo-butyl)-piperidine-1-carboxylic acid 2,2-dimethyl-propyl ester], the IC50 at human FAAH worked out at 50 nM; against rat FAAH it was 118 nM.

Take `O=C(CCCC1CCN(Cc2cncc(Br)c2)CC1)c1ncco1` [Example 78, 4-[1-(5-Bromo-pyridin-3-ylmethyl)-piperidin-4-yl]-1-oxazol-2-yl-butan-1-one]: the IC50 at human FAAH amounted to 98 nM; against rat FAAH, 500 nM.

With `O=C(CCCC1CCN(C(=O)Cc2ccccc2)CC1)c1ncco1` [Example 27, 1-Oxazol-2-yl-4-(1-phenylacetyl-piperidin-4-yl)-butan-1-one], the figures for the IC50 on human FAAH and against rat FAAH were 500 nM and 1300 nM, respectively.

In the case of `O=C(CCCC1CCN(Cc2ccc3ccccc3c2)CC1)c1ncco1` [Example 20, 4-(1-Naphthalen-2-ylmethyl-piperidin-4-yl)-1-oxazol-2-yl-butan-1-one], the IC50 at human FAAH turned out to be 8 nM; on rat FAAH, 9 nM.

In the case of `O=C(O)c1cnc(C(=O)CCCC2CCN(Cc3cccc(Oc4ccccc4)c3)CC2)o1` [Example 145, 2-{4-[1-(3-Phenoxy-benzyl)-piperidin-4-yl]-butyryl}-oxazole-5-carboxylic acid trifluoroacetic acid salt], the figures for the IC50 at human FAAH and against rat FAAH were 6 nM and 3 nM, respectively.

Consider `O=C(CCCC1CCN(Cc2ccc(Br)cc2)CC1)c1ncco1` [Example 91, 4-[1-(4-Bromo-benzyl)-piperidin-4-yl]-1-oxazol-2-yl-butan-1-one], for which the IC50 at human FAAH is 45 nM; at rat FAAH it was 270 nM.

Consider `O=C(O)c1cnc(C(=O)CCCC2CCN(Cc3cccc(-c4ccccc4)c3)CC2)o1` [Example 143, 2-[4-(1-Biphenyl-3-ylmethyl-piperidin-4-yl)-butyryl]-oxazole-5-carboxylic acid trifluoroacetic acid salt], for which the IC50 is 14 nM at human FAAH and 3 nM against rat FAAH.
